Literature values, collected in patent US8097602B1, “Method of treating body insect infestation” (Host Pharmaceuticals, LLC, priority 2008, dated 2012).

Conditions: at 20° C.

n-alkanes
Surface Tension (dynes/cm): 37.8^1 dynes/cm

n-fluoroalkanes
Surface Tension (dynes/cm): 25.9^1 dynes/cm
